Data on 20 molecules can be found in US5914339A, “Substituted 1,3-benzodioxoles” (American Home Products Corporation, priority 1997, dated 1999).

pEC50: −log10 of the molar value. Counter-ions that a name gives are not always drawn.

Sequence of human β2 adrenergic receptor (P07550 whole entry): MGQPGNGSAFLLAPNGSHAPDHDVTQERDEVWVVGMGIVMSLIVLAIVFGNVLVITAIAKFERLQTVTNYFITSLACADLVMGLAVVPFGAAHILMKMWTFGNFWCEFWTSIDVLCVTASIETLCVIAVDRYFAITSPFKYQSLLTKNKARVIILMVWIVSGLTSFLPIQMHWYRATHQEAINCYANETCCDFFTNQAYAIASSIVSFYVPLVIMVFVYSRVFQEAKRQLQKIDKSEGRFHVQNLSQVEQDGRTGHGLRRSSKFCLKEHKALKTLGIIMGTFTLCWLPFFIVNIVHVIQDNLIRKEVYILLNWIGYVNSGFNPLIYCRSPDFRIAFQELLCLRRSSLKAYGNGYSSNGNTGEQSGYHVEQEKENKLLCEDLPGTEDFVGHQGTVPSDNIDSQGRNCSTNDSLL

The first experiment has as its target human β2 adrenergic receptor (Homo sapiens, UniProt P07550). The experiment in a line: cell-based.
Details: not given
How it is done: The activity of the test compounds on human β-adrenergic receptors was determined with Chinese hamster ovary (CHO) cells transfected with human β2, or β1 adrenergic receptors. Agonist activity is indicated by increased cAMP levels in the CHO cells. Selectivity of the test compounds for the β3 receptor was assessed by comparison with results in β2 and β1 adrenergic receptor transfected cells.
1). Chinese hamster ovary (CHO) cells transfected with human β2, or β1 adrenergic receptors were used in the assay.
2). Cells were grown to confluent conditions in 24 well plates.
3). Drugs were dissolved in DMSO at a concentration of 10 μM.
4). Cells were incubated with drug at 10 nM concentration for 10 min at 37° C.
5). Cell cAMP concentrations were assayed using a scintillation proximity assay kit from Amersham Corp., Chicago, Ill.
6). Activities for the test compounds are expressed as a percentage of the isoproterenol response.
Production of the CHO cells transfected with human β2, or β1 adrenergic receptors, and compound test procedures utilizing the CHO cells, are described by Emorine et al. in their article "Molecular Characterization of the Human Beta3 -Adrenergic Receptor", Science 1989, 245(8), 1118-1121 and by Muzzin et al. in the article "An Adipose Tissue-Specific Beta3 -Adrenergic Receptor", J. Biol. Chem.1991, 266, 24053-24058.
^a Human β receptors expressed in Chinese hamster ovary cells,
compounds tested at 10 nM, results expressed as % of isoproterenol
activity (increase in cAMP) at 10 μM. EC50 (μM) values
determined for selected compounds.
Broadly, the pEC50 is the EC50 on a negative log10 scale, so that one unit is a factor of ten. Take `CC(Cc1ccc2c(c1)OC(C(=O)O)(C(=O)OC(C)C)O2)NCC(O)c1cccc(Cl)c1` (centres unmarked) [Example 22, 5-{2-[2-(3-Chloro-phenyl)-2-hydroxy-ethylamino]-propyl}-benzo[1,3]dioxole-2,2-dicarboxylic acid isopropyl ester]: the pEC50 was 7.82.

The experiment is the same for the next values; noted with them: 10 min; compounds tested at 10 nM, isoproterenol at 10 μM; CHO cells, 10 min at 37° C; read-out: β2: % of isoproterenol activity (increase in cAMP).
Consider `CCCOC(=O)COC(=O)C1(C(=O)OCC(=O)OCCC)Oc2ccc(CC(C)NCC(O)c3cccc(Cl)c3)cc2O1` (centres unmarked) [Example 25, 5-{2-[2-(3-Chloro-phenyl)-2-hydroxy-ethylamino]-propyl}-benzo[1,3]dioxole-2,2-dicarboxylic acid bis-propoxycarbonylmethyl ester], for which the activation at 0.01 µM stood at 6%.
In the case of `CC(Cc1ccc2c(c1)OC(C(=O)OCOC(=O)c1ccccc1)(C(=O)OCOC(=O)c1ccccc1)O2)NCC(O)c1cccc(Cl)c1` (centres unmarked) [Example 56, 5-{2-[2-(3-Chloro-phenyl)-2-hydroxy-ethylamino]propyl}benzo[1,3]dioxole-2,2-dicarboxylic acid bis-benzoyloxymethyl ester], the activation at 0.01 µM came to 8%.
As for `CC(Cc1ccc2c(c1)OC(C(=O)OCOC(=O)CCC1CCCC1)(C(=O)OCOC(=O)CCC1CCCC1)O2)NCC(O)c1cccc(Cl)c1` (centres unmarked) [Example 55, 5-{2-[2-(3-Chloro-phenyl)-2-hydroxy-ethylamino]propyl}benzo[1,3]dioxole-2,2-dicarboxylic acid bis-(3-cyclopentyl-propionyloxymethyl) ester], the activation at 0.01 µM came out at 0%.
`CCCCCCCCCOC(=O)C1(C(=O)OCCCCCCCCC)Oc2ccc(CC(C)NCC(O)c3cccc(Cl)c3)cc2O1` (centres unmarked) [Example 18, 5-{2-[2-(3-Chloro-phenyl)-2-hydroxy-ethylamino]-propyl}-benzo[1,3]dioxole-2,2-dicarboxylic acid dinonyl ester]: the activation at 0.01 µM was 6%.
In the case of `CC(Cc1ccc2c(c1)OC(C(=O)OC(C)OC(=O)CC(C)(C)C)(C(=O)OC(C)OC(=O)CC(C)(C)C)O2)NCC(O)c1cccc(Cl)c1` (centres unmarked) [Example 54], the activation at 0.01 µM was 7%.
On the same count and under the same terms, to `CCCCCCC(=O)OCOC(=O)C1(C(=O)OCOC(=O)CCCCCC)Oc2ccc(CC(C)NCC(O)c3cccc(Cl)c3)cc2O1` (centres unmarked) [Example 46, 5-{2-[2-(3-Chloro-phenyl)-2-hydroxyethylamino]propyl}benzo[1,3] dioxole-2,2-dicarboxylic acid bis-heptanoyloxymethyl ester] belongs 16%; to `CC(Cc1ccc2c(c1)OC(C(=O)OCCCl)(C(=O)OCCCl)O2)NCC(O)c1cccc(Cl)c1` (centres unmarked) [Example 73, 5-{2-[2-(3-Chloro-phenyl)-2-hydroxy-ethylamino]-propyl}-benzo[1,3]dioxole-2,2-dicarboxylic acid bis 2-(Chloro)ethyl ester], 0%; to `C[C@H](Cc1ccc2c(c1)OC(C(=O)OCC=Cc1ccccc1)(C(=O)OCC=Cc1ccccc1)O2)NC[C@H](O)c1cccc(Cl)c1` (stereo partly drawn) [Example 99, 5-{(2R)-2-[(2R)-2-(3-Chloro-phenyl)-2-hydroxy-ethylamino]-propyl}-benzo[1,3]dioxole-2,2-dicarboxylic acid bis-(3-phenyl-allyl)ester], 16%.
Regarding `CC(Cc1ccc2c(c1)OC(C(=O)OCC(=O)OC(C)C)(C(=O)OCC(=O)OC(C)C)O2)NCC(O)c1cccc(Cl)c1` (centres unmarked) [Example 27, 5-{2-[2-(3-Chloro-phenyl)-2-hydroxy-ethylamino]-propyl}-benzo[1,3]dioxole-2,2-dicarboxylic acid bis-isopropoxycarbonylmethyl ester], the activation at 0.01 µM was 5%.
As to `CCCCCCCCOC(=O)C1(C(=O)OCCCCCCCC)Oc2ccc(CC(C)NCC(O)c3cccc(Cl)c3)cc2O1` (centres unmarked) [Example 12, 5-{2-[2-(3-Chloro-phenyl)-2-hydroxy-ethylamino]-propyl}-benzo[1,3]dioxole-2,2-dicarboxylic acid dioctyl ester], the activation at 0.01 µM stood at 1%.
Consider `CCCCCC(=O)OCOC(=O)C1(C(=O)OCOC(=O)CCCCC)Oc2ccc(CC(C)NCC(O)c3cccc(Cl)c3)cc2O1` (centres unmarked) [Example 48, 5-{2-[2-(3-Chloro-phenyl)-2-hydroxyethylamino]propyl}benzo[1,3] dioxole-2,2-dicarboxylic acid bis-hexanoyloxymethyl ester], for which the activation at 0.01 µM stood at 4%.
Consider `C[C@H](Cc1ccc2c(c1)OC(C(=O)O)(C(=O)OCC13CC4CC(CC(C4)C1)C3)O2)NC[C@H](O)c1cccc(Cl)c1` (stereo partly drawn) [Example 79, 5-{(2R)-2-[(2R)-2-(3-Chloro-phenyl)-2-hydroxy-ethylamino]-propyl}-benzo[1,3]dioxole-2,2-dicarboxylic acid adamantan-1-ylmethyl ester], for which the activation at 0.01 µM came to 0%.
Turning to `CCN(CC)C(=O)COC(=O)C1(C(=O)OCC(=O)N(CC)CC)Oc2ccc(C[C@@H](C)NC[C@H](O)c3cccc(Cl)c3)cc2O1` [Example 68, 5-{(2R)-2-[(2R)-2-(3-Chloro-phenyl)-2-hydroxy-ethylamino]-propyl}-benzo[1,3]dioxole-2,2-dicarboxylic acid bis-diethylcarbamoylmethyl ester], the activation at 0.01 µM stood at 5%.
As for `CCOC(=O)COC(=O)C1(C(=O)OCC(=O)OCC)Oc2ccc(CC(C)NCC(O)c3cccc(Cl)c3)cc2O1` (centres unmarked) [Example 28, 5-{2-[2-(3-Chloro-phenyl)-2-hydroxy-ethylamino]-propyl}-benzo[1,3]dioxole-2,2-dicarboxylic acid bis-ethoxycarbonylmethyl ester], the activation at 0.01 µM was determined as 2%.
Still for that read-out and setting: to `C[C@H](Cc1ccc2c(c1)OC(C(=O)OC1CCCCCCC1)(C(=O)OC1CCCCCCC1)O2)NC[C@H](O)c1cccc(Cl)c1` [Example 100, 5-{(2R)-2-[(2R)-2-(3-Chloro-phenyl)-2-hydroxy-ethylamino]-propyl}-benzo[1,3]dioxole-2,2-dicarboxylic acid dicyclooctyl ester] belongs 2%.
Consider `CC(Cc1ccc2c(c1)OC(C(=O)OCC1(C)CC1)(C(=O)OCC1(C)CC1)O2)NCC(O)c1cccc(Cl)c1` (centres unmarked) [Example 39, 5-{2-[2-(3-Chloro-phenyl)-2-hydroxy-ethylamino]-propyl}-benzo[1,3]dioxole-2,2-dicarboxylic acid bis-(1-methyl-cyclopropylmethyl) ester], for which the activation at 0.01 µM amounted to 1%.

The same experiment, now with this note: CHO, 10 min, read-out: β2: % of isoproterenol activity (increase in cAMP).
`CCCCOCCOC(=O)C1(C(=O)OCCOCCCC)Oc2ccc(CC(C)NCC(O)c3cccc(Cl)c3)cc2O1` (centres unmarked) [Example 3, 5-{2-[2-(3-Chloro-phenyl)-2-hydroxy-ethylamino]-propyl}-benzo[1,3]dioxole-2,2-dicarboxylic acid bis-(2-butoxy-ethyl) ester hydrochloride salt]: the activation at 0.01 µM is 0%.
As to `CC(Cc1ccc2c(c1)OC(C(=O)OCCOc1ccccc1)(C(=O)OCCOc1ccccc1)O2)NCC(O)c1cccc(Cl)c1` (centres unmarked) [Example 4, 5-{2-[2-(3-Chloro-phenyl)-2-hydroxy-ethylamino]-propyl}-benzo[1,3]dioxole-2,2-dicarboxylic acid bis-(2-phenoxy-ethyl) ester hydrochloride salt], the activation at 0.01 µM was determined as 1%.
Regarding `Cc1cccc(CCOC(=O)C2(C(=O)OCCc3cccc(C)c3)Oc3ccc(C[C@@H](C)NC[C@H](O)c4cccc(Cl)c4)cc3O2)c1` [Example 97, 5-{(2R)-2-[(2R)-2-(3-Chloro-phenyl)-2-hydroxy-ethylamino]-propyl}-benzo[1,3]dioxole-2,2-dicarboxylic acid bis-(2-m-tolyl-ethyl) ester hydrochloride salt], the activation at 0.01 µM came to 4%.
